Format in all cases: functional, cell-based
One test relates to MCF7. Put plainly: Cytotoxicity against human MCF7 cells assessed as reduction in cell viability by SRB assay. Background: The SRB assay estimates cell density from bound dye.
The next test relates to KB. Put plainly: Cytotoxicity against human KB cells assessed as reduction in cell viability by SRB assay.
The subject of the next test is P388. Put plainly: Cytotoxicity against mouse P388 cells assessed as reduction in cell viability by SRB assay.
For another test, the system named is HT-29. Briefly: Cytotoxicity against human HT-29 cells assessed as reduction in cell viability by SRB assay.
The test system of another test is A549. Put plainly: Cytotoxicity against human A549 cells assessed as reduction in cell viability by SRB assay.
Test [1] in a line: Cytotoxicity against rat ASK cells assessed as reduction in cell viability by SRB assay.

As a reminder, the IC50 is the midpoint of a concentration-inhibition curve. Regarding `CC(=O)O[C@@H]1CC[C@]2(C)[C@H](CC[C@]3(CNc4ccccc4F)O[C@H](C4=CCOC4=O)C[C@H]32)[C@]1(C)CO[Si](C)(C)C(C)(C)C`, the IC50 amounted to 4.45 µM with MCF7; 6.49 µM with KB; 4.56 µM in the test on P388; 5.59 µM in the test with HT-29; 6.1 µM in the test on A549; 3.33 µM in test [1].
Regarding `COc1ccc(NC[C@]23CC[C@@H]4[C@](C)(COC(C)=O)[C@H](OC(C)=O)CC[C@@]4(C)[C@@H]2C[C@@H](C2=CCOC2=O)O3)cc1OC`, the 50% inhibitory concentration (IC50) in the test with MCF7 was more than 50 µM; in the test with KB it was more than 50 µM; with P388, 28.8 µM; in the test with HT-29 it was 24.1 µM; with A549, more than 50 µM; in test [1], more than 50 µM.

Source of the values: ChEMBL document CHEMBL4190295, “One-pot three steps cascade synthesis of novel isoandrographolide analogues and their cytotoxic activity” (Eur J Med Chem, 2017).
